This is an account of results in patent publication EP2948433B1, “ATGLISTATIN AS LIPASE INHIBITOR” (Technische Universität Graz, priority 2013, dated 2014).

The target of one data set is T1, murine MGL (Mus musculus, UniProt O35678).
T1 construct: made in house; host or cells: E. coli, purified
T1 sequence (O35678 1-303): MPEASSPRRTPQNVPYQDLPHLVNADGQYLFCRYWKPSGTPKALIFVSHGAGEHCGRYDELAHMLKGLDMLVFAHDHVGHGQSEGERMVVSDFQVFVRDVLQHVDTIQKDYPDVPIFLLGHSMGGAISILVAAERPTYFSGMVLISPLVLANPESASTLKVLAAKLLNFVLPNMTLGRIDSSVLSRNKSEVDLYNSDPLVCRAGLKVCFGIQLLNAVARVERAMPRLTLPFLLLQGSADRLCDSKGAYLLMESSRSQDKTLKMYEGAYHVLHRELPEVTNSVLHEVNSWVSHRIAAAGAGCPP
Description: MG hydrolase activity, purified MGL, rac-1-(3)-oleoylglycerol substrate. The following applies: Fig. 2C. Type of data set: biochemical. As for the experimental part:
• Figure 1. Structure of compounds 1 to 3 (reference) and compound 4 (atglistatin) and effect on ATGL activity. For determination of lipase activity, lysates of E. coli overexpressing recombinant strep-tagged ATGL and CGI-58 were incubated with a substrate containing radiolabeled [9,10-3H(N)]-triolein. Subsequently, FA were extracted and quantified by liquid scintillation counting. Lysates of cells expressing empty vector were set as blank. Inhibitors were solubilized in DMSO and added at the indicated concentrations. DMSO alone was used as negative control. (A) Structure and IC50 values of compounds 1-4. (B) Dose-dependent inhibition of ATGL in the presence of compound 3 and 4. […] (C) Lineweaver-Burk plots for kinetic analysis of ATGL inhibition. Experiments were performed at varying concentrations of substrate (0.05 - 3 mM) in presence and absence of compound 4 (Atglistatin). […] Lipase activity of ATGL, HSL, lipoprotein lipase, and pancreatic lipase was determined using triolein as substrate. MGL activity was detected in the presence of rac-(1,3)-monooleoylglycerol as substrate. […] The release of FA (A) and glycerol (B) in the media was determined using commercial kits. […] At the indicated timepoints blood was taken retroorbitally and plasma parameters were measured using commercial kits. […] 8 h after gavage blood was taken retroorbitally and plasma parameters were measured using commercial kits. […]

A further data set relates to AML-12 mouse hepatocytes. Description: MTT-based in vitro viability (toxicity) test. Type of data set: cell-based. The note with it: at concentrations ≥100 µM. As for the experimental part:
Toxicity test for Atglistatin in AML-12 mouse hepatocytes. For MTT-based in vitro viability assays, cells were seeded at an initial density of 1x10^4 cells per well in 96-well plates and cultured under standard conditions for twenty-four hours. The next day, cells were pretreated with different concentrations of Atglistatin dissolved in DMSO or Cisplatin dissolved in dimethylformamide (DMF) (Sigma-Aldrich) as positive control for two hours. Medium was replaced by an identical fresh medium and incubated again for the indicated timepoints. Thereafter cells were incubated for 3 hours with 100 µl Thiazolyl Blue Tetrazolium Bromide (MTT). The resulting violet formazan crystals were dissolved by adding 100 µl of MTT Solubilization Solution (0.1% NP-40, 4 mM HCl and anhydrous isopropanol). After complete dissolution of the formazan product, absorbance was measured at 595 nm and 690 nm. The values obtained at 690 nm were subtracted from the 595 nm measurements.

Data set [1] has as its system TG hydrolase activity of wild-type WAT. Description: TG hydrolase activity in WAT lysates of wild-type mice. The following applies: up to, at a concentration of 40 µM. Type of data set: biochemical.
Description: For determination of lipase activity, lysates of E. coli overexpressing recombinant strep-tagged ATGL and CGI-58 were incubated with a substrate containing radiolabeled [9,10-3H(N)]-triolein. Subsequently, FA were extracted and quantified by liquid scintillation counting. Lysates of cells expressing empty vector were set as blank. Inhibitors were solubilized in DMSO and added at the indicated concentrations. DMSO alone was used as negative control. […] Data are presented as mean +/-S.D. of triplicate determinations. […] Lipase activity of ATGL, HSL, lipoprotein lipase, and pancreatic lipase was determined using triolein as substrate. MGL activity was detected in the presence of rac-(1,3)-monooleoylglycerol as substrate. Inhibitors were solubilized in DMSO and added at the indicated concentrations. DMSO alone was used as negative control. (A) Dose-dependent inhibition of TG hydrolase activity in WAT lysates obtained from wild-type and ATGL-ko mice.

Turning to `CN(C)C(=O)Nc1cccc(-c2ccc(N(C)C)cc2)c1` [Atglistatin, atglistatin], the “effect on MGL activity” value on murine MGL is on record as “only minor effects”. The “cell viability (cytotoxicity assays)” value in the data set on AML-12 mouse hepatocytes is recorded as “only a very moderate decrease in cell viability”. Also, the “inhibition of TG hydrolase activity of wild-type WAT” value in data set [1] is “up to 78%”.
